Reference: patent US20130123386A1, “HINDERED PRIMARY CHLORINATED AMINE IN A LATEX FORMULATION” (ROHM AND HAAS COMPANY, priority 2011, published 2013)

Tests used:
[1] = tested on: standard industrial inoculum; experiment: Preservative efficacy (challenge) testing of latex binder samples, growth rating of streaked TSA plates; assay type: cell-based
Protocol: The samples prepared in accordance with Examples 1-4 and Comparative Example 1 were subjected to preservative efficacy testing in accordance with the following procedure:
A 1-g aliquot was removed from each sample and submitted for biocide analysis by a standard HPLC procedure to check the amount of isothiazolone microbicide dosed. The samples were then dosed with the standard industrial inoculum at a level of 0.1 mL/10 g.
All bacteria and yeast were stored at −70° C. to −80° C. in broth and glycerol (15%) prior to inoculum preparation. Molds were maintained on potato dextrose agar (PDA) plates at 2-5° C. The bacteria and yeast cultures were thawed and 0.1-mL aliquots of each were transferred into separate 10-mL aliquots of tryptic soy broth (TSB). These cultures were incubated at 30° C. for 18-24 h, with shaking at 150-200 rpm.
A volume of 10 mL of sterile phosphate buffer was measured out. The two mold strains were added by wetting sterile swabs in phosphate buffer, or water, and then rolling the swabs over the molds, covering an area of approximately 1 in^2 on each plate. The mold-covered swabs were then immersed in the 10 mL of phosphate buffer and agitated to suspend the spores. A volume of 0.1 mL of each bacterial culture, and a volume of 1 mL of each yeast culture, was then added to the mold mixture. The inoculum was blended by vortexing briefly. The organisms used in the inoculum and their corresponding American Type Culture Collection numbers (ATCC #) are shown in Table 1.
Samples were inverted several times to mix in the microorganisms. This inoculation challenged each test sample with 10^6-10^7 colony forming units/mL latex. Using a 10-μL sterile loop, latex samples were streaked onto tryptic soy agar (TSA) plates. This procedure was carried at t=0 and at several other time points during the first ˜5 h of the experiment to obtain speed-of-kill data. Additional time points were taken at t=1, 2 and 7 days. Between time points, all samples were stored at 30° C. In addition, all streaked TSA plates were incubated at 30° C. […]

[2] = Heat aging of amine/latex binder preparation at 50° C. for 14 days, concentration by GC; assay type: physicochemical; conditions: latex binder
Protocol: A 20.0-g dispersion of N-chloro-2,4,4-trimethylpentan-2-amine, 18% sodium lauryl sulfate, and water (C1-TOA, 0.47 g; SLS, 1.29 g; H2O, 18.24.g) with a particle size in the range of 100 to 850 nm was added to a butyl acrylate/methyl methacrylate/methacrylic acid latex binder (180 g; 50/49/1 percentages by weight) stabilized by SLS (1 weight percent) and Disponil FES 32 emulsifier (1 weight percent). The Cl-TOA/binder preparation was heat aged at 50° C. for 14 days. The concentration of Cl-TOA prior to the heat aging step was 2350 ppm (14 mM). The concentration of Cl-TOA after the heat-aging step was measured by GC to be ˜160 ppm based on the volume of the binder.
The procedures were carried out substantially as described for Example 1 except that, after heat-aging, a diluted sample of KATHON™ LX Microbicide Concentrate (A Trademark of The Dow Chemical Company or Its Affiliates) was mixed in with the binder/Cl-TOA preparation by shaking the samples at 200 rpm for 20 min, giving a final dosage of ˜5 ppm active. The concentration of Cl-TOA after the heat-aging step was measured by GC to be ˜160 ppm based on the volume of the binder.
The procedure of Example 2 was repeated except that the constituents of the added dispersion were Cl-TOA (0.19 g), SLS (0.52 g), and water (19.29 g). The concentration of Cl-TOA after the heat-aging step was estimated to be ˜65 ppm based on the volume of the binder.
(TOA, 0.38 g; SLS, 1.06 g; H2O, 18.56 g) with a particle size in the range of 100 to 850 nm was added to a butyl acrylate/methyl methacrylate/methacrylic acid latex binder (180 g; 50/49/1 percentages by weight) stabilized by SLS (1 weight percent) and Disponil FES 32 emulsifier (1 weight percent). The TOA/binder preparation was heat aged at 50° C. for 14 days. The concentration of TOA before heat aging was 1900 ppm (14 mM), and GC measurements indicated no change in TOA concentration as a result of heat aging. […]

Row | Structure (SMILES) | Efficacy as a quick-kill preservative ([1]; alone or in combination with the KATHON LX Microbicide, heat-aged latex binder) | Concentration of Cl-TOA after the heat-aging step (estimated) ([2]; 940 ppm (6 mM) before heat aging, estimated, based on the volume of the binder (Example 3)) | Concentration of Cl-TOA after the heat-aging step ([2]; 2350 ppm (14 mM) before heat aging, measured by GC, based on the volume of the binder (Examples 1 and 2)) | Biocidal activity ([1]; TOA itself) | Effect as an adjuvant for the biocide ([1]; with KATHON LX, compared to the microbiocide alone (Comp. Ex. 1)) | Change in TOA concentration as a result of heat aging ([2]; 1900 ppm (14 mM) before heat aging, GC (Example 4))
1 | CC(C)(C)CC(C)(C)NCl [Cl-TOA, N-chloro-2,4,4-trimethylpentan-2-amine] | effective | ~65 ppm | ~160 ppm | – | – | –
2 | CC(C)(C)CC(C)(C)N [TOA, 2,4,4-trimethylpentan-2-amine] | – | – | – | little or no biocidal activity | effective as an adjuvant | no change
